Source: ChEMBL document CHEMBL1201862, “PubChem BioAssay data set” (2004)
Active and inactive are the calls of the source. Cut-off read from the data, not from the text of the source, for most assays here: actives have a measured EC50 and inactives only a lower limit.

Assays:
[1] = target: T1, Apoptotic protease-activating factor 1 (Homo sapiens, UniProt O14727); assay type: functional
T1 sequence (O14727 whole entry): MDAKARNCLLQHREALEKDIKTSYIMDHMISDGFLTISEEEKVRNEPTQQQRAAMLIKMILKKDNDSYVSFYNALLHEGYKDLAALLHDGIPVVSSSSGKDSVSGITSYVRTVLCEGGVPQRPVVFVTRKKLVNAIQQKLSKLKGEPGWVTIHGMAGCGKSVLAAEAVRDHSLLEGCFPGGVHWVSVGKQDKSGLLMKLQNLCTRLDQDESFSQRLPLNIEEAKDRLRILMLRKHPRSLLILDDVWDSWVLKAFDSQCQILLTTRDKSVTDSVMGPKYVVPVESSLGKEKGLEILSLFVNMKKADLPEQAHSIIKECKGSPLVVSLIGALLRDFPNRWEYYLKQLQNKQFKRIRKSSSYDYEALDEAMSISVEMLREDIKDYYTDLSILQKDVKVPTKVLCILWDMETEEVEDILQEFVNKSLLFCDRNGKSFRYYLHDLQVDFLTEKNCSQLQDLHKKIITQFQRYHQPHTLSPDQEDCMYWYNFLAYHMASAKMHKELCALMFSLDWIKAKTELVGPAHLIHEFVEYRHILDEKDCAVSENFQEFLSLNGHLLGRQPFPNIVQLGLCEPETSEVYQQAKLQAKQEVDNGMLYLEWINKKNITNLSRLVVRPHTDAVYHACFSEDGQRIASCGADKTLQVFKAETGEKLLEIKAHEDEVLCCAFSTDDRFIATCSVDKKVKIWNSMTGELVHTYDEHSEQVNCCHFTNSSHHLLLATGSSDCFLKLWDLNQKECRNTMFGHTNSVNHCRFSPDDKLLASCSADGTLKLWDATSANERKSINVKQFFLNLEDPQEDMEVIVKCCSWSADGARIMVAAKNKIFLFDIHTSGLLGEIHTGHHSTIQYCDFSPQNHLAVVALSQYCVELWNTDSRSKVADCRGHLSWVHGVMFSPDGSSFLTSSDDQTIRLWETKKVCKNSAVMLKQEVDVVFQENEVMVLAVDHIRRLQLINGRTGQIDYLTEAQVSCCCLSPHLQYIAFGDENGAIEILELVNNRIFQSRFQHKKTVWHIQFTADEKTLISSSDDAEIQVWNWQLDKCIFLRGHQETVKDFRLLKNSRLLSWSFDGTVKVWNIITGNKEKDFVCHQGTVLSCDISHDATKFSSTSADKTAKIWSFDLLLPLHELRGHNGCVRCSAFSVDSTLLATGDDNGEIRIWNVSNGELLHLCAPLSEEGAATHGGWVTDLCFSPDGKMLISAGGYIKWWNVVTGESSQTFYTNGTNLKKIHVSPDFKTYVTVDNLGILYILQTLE

[2] = test system: Streptococcus; assay: Group A Streptococcus viability loss, dose response, counter-screen for streptokinase expression inhibitor project, luminescence, BacTiterGlo (AID 1915); assay type: functional, organism-based;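 note: potency for reduction of bacterial viability or growth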
[3] = target: T2, Heat shock factor protein 1 (Mus musculus, UniProt P38532); assay: inhibition of MG132-induced HSE-luciferase signal, confirmation, cell-based, NIH3T3, luminescence, dose retest (AID 2382); assay type: functional;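 note: NIH3T3 fibroblasts with HSF1-driven luciferase reporter stressed by proteasome inhibitor MG132; luminescence from HSF1-driven luciferase expression after 8 hours of MG132 stress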
T2 sequence (P38532 whole entry): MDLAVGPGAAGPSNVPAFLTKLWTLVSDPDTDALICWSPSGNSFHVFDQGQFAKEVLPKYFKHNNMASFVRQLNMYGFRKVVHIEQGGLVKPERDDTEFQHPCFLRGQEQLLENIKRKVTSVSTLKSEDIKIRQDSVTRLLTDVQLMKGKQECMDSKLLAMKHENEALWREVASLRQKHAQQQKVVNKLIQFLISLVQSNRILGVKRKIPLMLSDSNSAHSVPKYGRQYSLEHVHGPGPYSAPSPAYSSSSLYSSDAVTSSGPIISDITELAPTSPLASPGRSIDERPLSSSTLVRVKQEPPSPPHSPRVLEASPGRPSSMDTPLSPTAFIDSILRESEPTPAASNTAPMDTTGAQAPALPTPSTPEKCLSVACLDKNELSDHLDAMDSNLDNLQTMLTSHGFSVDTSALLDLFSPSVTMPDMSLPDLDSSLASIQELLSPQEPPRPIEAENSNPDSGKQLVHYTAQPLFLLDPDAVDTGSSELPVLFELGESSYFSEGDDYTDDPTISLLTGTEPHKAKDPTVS

[4] = test system: Streptococcus sp. 'group A'; assay: growth inhibition of control SK(-) GAS strain, dose response, counter-screen for streptokinase expression inhibitor project, luminescence, kanamycin, BacTiterGlo, confirmation (AID 1900); assay type: functional, organism-based
[5] = target: Estrogen receptor beta (Homo sapiens, UniProt Q92731);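 note: recombinant ER-beta bound to coactivator SRC1 peptide in presence of estradiol agonist; inhibitors block coactivator peptide binding and lower the FRET signal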
Estrogen receptor beta, sequence (Q92731 whole entry): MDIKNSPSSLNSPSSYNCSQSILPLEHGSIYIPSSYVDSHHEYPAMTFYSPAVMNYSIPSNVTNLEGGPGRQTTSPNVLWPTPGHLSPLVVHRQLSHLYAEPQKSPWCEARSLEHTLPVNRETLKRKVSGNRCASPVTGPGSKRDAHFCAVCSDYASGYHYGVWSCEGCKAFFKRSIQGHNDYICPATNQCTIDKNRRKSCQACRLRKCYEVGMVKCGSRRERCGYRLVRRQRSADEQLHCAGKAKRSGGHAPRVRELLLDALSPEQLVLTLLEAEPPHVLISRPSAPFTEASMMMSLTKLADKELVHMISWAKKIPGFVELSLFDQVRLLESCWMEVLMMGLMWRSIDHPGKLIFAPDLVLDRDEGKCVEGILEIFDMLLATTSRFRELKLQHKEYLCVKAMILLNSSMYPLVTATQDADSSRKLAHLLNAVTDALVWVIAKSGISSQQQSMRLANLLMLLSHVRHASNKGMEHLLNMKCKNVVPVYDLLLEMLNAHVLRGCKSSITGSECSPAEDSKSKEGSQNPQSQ

`COc1ccc(C(=O)c2c(C(F)(F)F)oc3c2C(=O)c2ccccc2C3=O)cc1` was tested, and the IC50 [1] was 5.29 µM (active), the EC50 [2] was 4.92 µM (active) and the EC50 [3] was 2.67 µM (active). The EC50 [4] was 2.26 µM (active) and the IC50 [5] was > 50 µM (not active).
